Results on ten compounds are retold here after PMC3607609 (PLoS ONE, 2013).

One assay has as its system L-type channels. Also noted: method as in PMID 10991994, PMID 7565636. The following applies: cited from earlier work.
Assay [1] concerns resistant KCl-evoked Ca^2+ responses in SH-SY5Y cells. In words: cells. It is filed as cell-based, human. The following applies: for IC50: Homo sapiens, SH-SY5Y, read-out: Ca2+ inhibition IC50, resistant responses.
The test system of a further assay is Cav3. Also noted: method as in PMID 10991994, PMID 9481480. As to conditions: different systems; cited from earlier work.
Assay [2] concerns the target Cav2.2 expressed in rat brain (Rattus norvegicus, UniProt Q02294). In words: biochemical. The assay is classed as binding, rat (male Wistar).
Assay [3] deals with Cav2.2 channels endogenously expressed in SH-SY5Y cells (Homo sapiens, UniProt Q00975). In words: cell-based.
Cav2.2 channels endogenously expressed in SH-SY5Y cells, sequence (Q00975 whole entry, looked up): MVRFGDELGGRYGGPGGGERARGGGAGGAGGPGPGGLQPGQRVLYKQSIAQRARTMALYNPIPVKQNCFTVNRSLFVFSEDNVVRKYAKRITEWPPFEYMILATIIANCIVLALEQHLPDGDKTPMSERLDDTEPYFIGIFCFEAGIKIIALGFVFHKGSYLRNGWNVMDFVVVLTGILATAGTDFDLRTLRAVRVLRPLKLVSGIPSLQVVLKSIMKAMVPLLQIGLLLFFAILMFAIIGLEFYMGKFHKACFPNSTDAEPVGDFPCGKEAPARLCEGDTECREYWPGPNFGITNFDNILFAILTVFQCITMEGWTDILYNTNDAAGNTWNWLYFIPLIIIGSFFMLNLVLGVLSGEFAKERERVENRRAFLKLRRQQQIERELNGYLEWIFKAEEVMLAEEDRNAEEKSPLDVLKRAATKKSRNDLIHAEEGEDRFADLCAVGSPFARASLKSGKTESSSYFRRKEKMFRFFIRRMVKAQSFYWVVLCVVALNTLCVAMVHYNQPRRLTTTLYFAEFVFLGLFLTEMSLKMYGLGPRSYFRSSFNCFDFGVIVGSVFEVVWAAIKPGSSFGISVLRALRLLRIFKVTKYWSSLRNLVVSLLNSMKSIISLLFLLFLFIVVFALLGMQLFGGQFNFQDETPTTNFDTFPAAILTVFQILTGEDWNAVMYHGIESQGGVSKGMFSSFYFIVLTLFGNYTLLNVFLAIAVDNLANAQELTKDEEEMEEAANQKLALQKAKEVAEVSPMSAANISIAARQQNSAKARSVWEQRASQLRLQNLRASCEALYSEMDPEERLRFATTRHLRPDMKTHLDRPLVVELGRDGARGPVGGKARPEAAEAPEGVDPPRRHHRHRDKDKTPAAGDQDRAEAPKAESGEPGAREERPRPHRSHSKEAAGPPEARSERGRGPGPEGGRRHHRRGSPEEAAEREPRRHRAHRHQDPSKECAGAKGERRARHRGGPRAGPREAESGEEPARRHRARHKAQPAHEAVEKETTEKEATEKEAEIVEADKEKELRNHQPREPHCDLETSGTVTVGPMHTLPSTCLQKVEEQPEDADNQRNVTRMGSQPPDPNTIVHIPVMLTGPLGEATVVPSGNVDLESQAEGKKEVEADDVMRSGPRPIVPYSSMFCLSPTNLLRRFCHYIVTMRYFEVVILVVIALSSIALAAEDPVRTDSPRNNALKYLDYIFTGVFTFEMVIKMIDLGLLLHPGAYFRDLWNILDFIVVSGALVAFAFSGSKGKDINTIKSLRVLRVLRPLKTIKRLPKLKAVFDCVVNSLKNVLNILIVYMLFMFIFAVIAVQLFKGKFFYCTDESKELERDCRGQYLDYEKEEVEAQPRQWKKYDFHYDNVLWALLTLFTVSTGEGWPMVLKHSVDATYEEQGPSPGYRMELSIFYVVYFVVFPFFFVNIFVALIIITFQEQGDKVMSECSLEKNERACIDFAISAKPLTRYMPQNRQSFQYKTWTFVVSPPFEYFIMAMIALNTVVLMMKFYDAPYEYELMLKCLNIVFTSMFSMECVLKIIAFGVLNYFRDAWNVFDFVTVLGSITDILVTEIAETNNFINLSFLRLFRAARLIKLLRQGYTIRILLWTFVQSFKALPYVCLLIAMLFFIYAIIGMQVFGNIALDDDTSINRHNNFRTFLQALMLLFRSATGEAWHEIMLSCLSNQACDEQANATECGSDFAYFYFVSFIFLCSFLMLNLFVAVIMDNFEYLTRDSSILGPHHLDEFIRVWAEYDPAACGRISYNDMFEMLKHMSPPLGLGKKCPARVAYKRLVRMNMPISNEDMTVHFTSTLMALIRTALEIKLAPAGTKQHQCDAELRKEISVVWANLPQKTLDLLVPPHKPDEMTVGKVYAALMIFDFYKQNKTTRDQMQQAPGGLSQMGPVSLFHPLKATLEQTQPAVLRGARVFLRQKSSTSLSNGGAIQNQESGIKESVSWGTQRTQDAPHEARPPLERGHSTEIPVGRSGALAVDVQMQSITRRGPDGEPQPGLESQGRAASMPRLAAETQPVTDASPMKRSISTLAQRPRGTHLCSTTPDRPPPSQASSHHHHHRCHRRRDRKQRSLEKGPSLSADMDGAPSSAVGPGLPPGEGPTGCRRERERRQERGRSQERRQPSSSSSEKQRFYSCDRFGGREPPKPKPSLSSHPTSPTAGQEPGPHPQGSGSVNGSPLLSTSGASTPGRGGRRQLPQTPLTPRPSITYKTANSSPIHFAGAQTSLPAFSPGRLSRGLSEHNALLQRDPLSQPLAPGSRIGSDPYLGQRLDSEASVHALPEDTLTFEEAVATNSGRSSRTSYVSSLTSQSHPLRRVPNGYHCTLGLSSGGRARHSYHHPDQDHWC
Assay [4] deals with Cav2.2 expressed in SH-SY5Y membranes (Homo sapiens, UniProt Q00975). The assay is described as follows: biochemical. The assay is classed as binding.
Cav2.2 expressed in SH-SY5Y membranes, sequence (Q00975 whole entry, looked up): as above
Assay [5] concerns the target Cav2.2 expressed in SH-SY5Y whole cell (Homo sapiens, UniProt Q00975). The assay is described as follows: cell-based. The assay is classed as binding.
The next assay has as its system α2δ. Further details: method as in PMID 19559597. As to conditions: cited from earlier work.
The subject of assay [6] is Cav channels endogenously expressed in SH-SY5Y cells. The assay is classed as cell-based, human.
In assay [7] the target is Cav1 channels endogenously expressed in SH-SY5Y cells (Homo sapiens, UniProt Q01668). The assay is described as follows: Inhibition of KCl-evoked Cav1 Ca2+ responses in presence of CVID, FLIPR-Tetra. It is filed as cell-based. The following applies: in presence of saturating CVID.
Setting [8] is: in presence of CVID and nifedipine, agatoxins and SNX 482 up to 10 µM, mibefradil 30 µM.

Values joined by “and” are separate entries in the source; they are usually repeats but may differ in a detail not shown here. Equal values may be shown once. “Also recorded” adds a separate entry of the source. Read-outs that look alike come from different tables or passages of the source. Positions of bridges follow the written chain, without caps; N, C: chain ends. Residues, ends and D or L forms follow the SMILES beside them.

Cav2.2 expressed in SH-SY5Y whole cell, sequence (Q00975 whole entry, looked up): as above
Cav2.2 expressed in rat brain, sequence (Q02294 whole entry, looked up): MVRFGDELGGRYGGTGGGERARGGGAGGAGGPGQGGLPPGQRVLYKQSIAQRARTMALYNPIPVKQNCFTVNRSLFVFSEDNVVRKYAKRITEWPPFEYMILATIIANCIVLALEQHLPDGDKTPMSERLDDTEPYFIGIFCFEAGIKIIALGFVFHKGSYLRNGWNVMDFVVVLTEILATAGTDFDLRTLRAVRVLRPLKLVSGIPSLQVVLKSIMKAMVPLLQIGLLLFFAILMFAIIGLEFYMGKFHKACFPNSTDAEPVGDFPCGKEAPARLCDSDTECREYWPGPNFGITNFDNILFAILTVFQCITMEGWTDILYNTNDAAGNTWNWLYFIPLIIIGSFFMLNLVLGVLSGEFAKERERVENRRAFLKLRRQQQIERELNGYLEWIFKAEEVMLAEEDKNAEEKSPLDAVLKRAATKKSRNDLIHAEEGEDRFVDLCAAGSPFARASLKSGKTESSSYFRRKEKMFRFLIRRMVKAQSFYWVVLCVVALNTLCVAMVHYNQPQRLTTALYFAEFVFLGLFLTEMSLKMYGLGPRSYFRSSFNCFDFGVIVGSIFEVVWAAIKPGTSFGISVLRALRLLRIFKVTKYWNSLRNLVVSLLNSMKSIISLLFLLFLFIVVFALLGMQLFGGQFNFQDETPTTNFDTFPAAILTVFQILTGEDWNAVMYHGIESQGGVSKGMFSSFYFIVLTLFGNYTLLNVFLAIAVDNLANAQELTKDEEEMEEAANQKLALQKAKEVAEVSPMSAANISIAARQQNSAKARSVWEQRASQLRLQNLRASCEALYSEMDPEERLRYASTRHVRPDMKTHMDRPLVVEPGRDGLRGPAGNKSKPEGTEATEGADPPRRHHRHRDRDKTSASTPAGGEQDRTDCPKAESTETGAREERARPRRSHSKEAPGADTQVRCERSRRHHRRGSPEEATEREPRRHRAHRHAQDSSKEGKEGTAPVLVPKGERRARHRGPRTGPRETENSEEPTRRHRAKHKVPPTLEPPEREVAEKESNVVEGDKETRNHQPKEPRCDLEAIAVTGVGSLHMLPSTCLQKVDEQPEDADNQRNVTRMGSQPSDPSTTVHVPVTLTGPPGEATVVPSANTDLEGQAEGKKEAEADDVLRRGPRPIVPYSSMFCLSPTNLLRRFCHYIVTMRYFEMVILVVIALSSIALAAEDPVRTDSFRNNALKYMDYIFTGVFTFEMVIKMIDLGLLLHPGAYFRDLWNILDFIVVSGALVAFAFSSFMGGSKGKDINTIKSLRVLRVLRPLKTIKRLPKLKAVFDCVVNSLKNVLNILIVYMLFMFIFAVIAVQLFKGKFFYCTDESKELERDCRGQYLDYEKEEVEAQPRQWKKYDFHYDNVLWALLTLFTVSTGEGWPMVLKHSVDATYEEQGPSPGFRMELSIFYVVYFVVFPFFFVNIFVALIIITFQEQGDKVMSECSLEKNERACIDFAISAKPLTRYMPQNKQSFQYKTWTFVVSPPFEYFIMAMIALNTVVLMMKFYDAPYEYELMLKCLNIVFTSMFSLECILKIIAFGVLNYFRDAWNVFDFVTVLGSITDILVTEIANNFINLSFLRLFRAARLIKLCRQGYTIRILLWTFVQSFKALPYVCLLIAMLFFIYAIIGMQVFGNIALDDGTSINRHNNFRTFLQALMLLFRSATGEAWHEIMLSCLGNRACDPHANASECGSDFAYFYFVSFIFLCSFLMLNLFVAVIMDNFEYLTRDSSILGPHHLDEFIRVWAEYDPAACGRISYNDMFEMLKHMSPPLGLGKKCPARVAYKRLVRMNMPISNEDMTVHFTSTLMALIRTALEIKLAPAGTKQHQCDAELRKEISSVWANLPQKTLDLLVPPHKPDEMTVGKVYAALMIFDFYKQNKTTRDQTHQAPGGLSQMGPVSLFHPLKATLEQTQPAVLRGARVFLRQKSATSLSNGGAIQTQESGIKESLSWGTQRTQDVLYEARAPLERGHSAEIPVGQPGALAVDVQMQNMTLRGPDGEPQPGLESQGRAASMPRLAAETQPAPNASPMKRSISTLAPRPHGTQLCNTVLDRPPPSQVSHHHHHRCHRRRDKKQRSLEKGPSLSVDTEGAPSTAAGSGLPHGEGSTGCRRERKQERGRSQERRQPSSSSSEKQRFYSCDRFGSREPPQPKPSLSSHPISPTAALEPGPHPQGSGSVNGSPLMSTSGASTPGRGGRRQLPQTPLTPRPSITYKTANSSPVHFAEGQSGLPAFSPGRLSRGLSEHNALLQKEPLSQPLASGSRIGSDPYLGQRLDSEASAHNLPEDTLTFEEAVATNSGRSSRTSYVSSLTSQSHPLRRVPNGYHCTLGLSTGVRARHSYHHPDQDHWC

As usually defined, the IC50 is the concentration that gives 50% inhibition. For `COCC(=O)O[C@]1(CCN(C)CCCc2nc3ccccc3[nH]2)CCc2cc(F)ccc2[C@@H]1C(C)C` [mibefradil], in the assay with L-type channels, the “Inhibition of L-type channels (in words)” value is “also inhibit L-type channels”. In addition, the IC50 in [1] amounted to 3 ± 0.031 µM. The “Effect on resistant KCl-evoked Ca2+ responses (in words)” value in assay [1] (setting [8]) is reported as “fully inhibited these remaining responses; also recorded: completely abolished”. Also, in the assay with Cav3, the “Inhibition of Cav3 responses (in words)” value is “weak affinity”.

As to `O=c1[nH]c2ccccc2n1C1CCN(CCCC(c2ccc(F)cc2)c2ccc(F)cc2)CC1` [pimozide], the “Inhibition of L-type channels (in words)” value with L-type channels was “also inhibit L-type channels”. The half-maximal inhibitory concentration (IC50) in assay [1] was 1.3 ± 0.097 µM. In addition, in assay [1] (setting [8]), the “Effect on resistant KCl-evoked Ca2+ responses (in words)” value is given as “fully inhibited the remaining responses; also recorded: completely abolished”.

SNX 482: in assay [1], the “Ca2+ inhibition IC50, resistant responses” value is “NDR” and the “Effect on resistant KCl-evoked Ca2+ responses (in words)” value was “no significant inhibitory effect; also recorded: not blocked”.

A word on the Kd: it is the free concentration of one partner at which half of the binding sites on the other are occupied at equilibrium, for simple one-to-one binding. For the compound `CSCC[C@@H]1NC(=O)[C@H](CC(C)C)NC(=O)[C@H](CCCCN)NC(=O)[C@H](CO)NC(=O)[C@@H]2CSSC[C@@H]3NC(=O)[C@H](CO)NC(=O)CNC(=O)[C@H](CO)NC(=O)[C@H](CSSC[C@H](N)C(=O)N[C@@H](CCCCN)C(=O)N[C@@H](CO)C(=O)N[C@@H](CCCCN)C(=O)NCC(=O)N[C@@H](C)C(=O)N[C@@H](CCCCN)C(=O)N2)NC(=O)[C@H](CSSC[C@@H](C(N)=O)NC(=O)[C@H](CCCNC(=N)N)NC(=O)CNC(=O)[C@H](C(C)C)NC(=O)[C@H]([C@@H](C)O)NC(=O)CNC(=O)[C@H](CO)NC3=O)NC(=O)[C@H](CC(=O)O)NC(=O)[C@H](Cc2ccc(O)cc2)NC1=O` [CVID] (H-CKSKGAKCSKLMYDCCSGSCSGTVGRC-NH2; disulfide 1-16, 8-20, 15-27), the figures for the IC50 in assay [2], in assay [3] and in assay [4] were 0.0295 nM, 0.16 ± 0.025 µM and 0.00309 nM, respectively. Also, in assay [5], binding was characterised by a dissociation constant (Kd) of 0.0032 ± 0.0002 µM.

For `NCC1(CC(=O)O)CCCCC1` [gabapentin], the “Effect of α2δ binding on Cav2.2 trafficking and pain (in words)” value in the assay with α2δ was “reducing Cav2.2 trafficking and the symptoms of pain”.

Consider `C[C@@H](O)[C@@H]1NC(=O)[C@H](Cc2ccc(O)cc2)NC(=O)[C@@H]2C[C@@H](O)CN2C(=O)[C@H](CC(N)=O)NC(=O)[C@@H]2CSSC[C@@H]3NC(=O)[C@H](CO)NC(=O)[C@H](CO)NC(=O)CNC(=O)[C@@H]4C[C@@H](O)CN4C(=O)[C@H](CO)NC(=O)[C@H](CCCCN)NC(=O)[C@@H](N)CSSC[C@H](NC(=O)[C@H](CSSC[C@@H](C(=O)N[C@@H](Cc4ccc(O)cc4)C(N)=O)NC(=O)[C@H](CCCN=C(N)N)NC(=O)[C@H](CCCCN)NC1=O)NC(=O)[C@H](CC(N)=O)NC(=O)[C@H](Cc1ccc(O)cc1)NC(=O)[C@H](CO)NC(=O)[C@H]([C@@H](C)O)NC(=O)[C@@H]1C[C@@H](O)CN1C(=O)[C@H](CO)NC3=O)C(=O)N[C@@H](CCCN=C(N)N)C(=O)N[C@@H](CO)C(=O)N2` [GVIA], for which the IC50 in assay [2] was 0.0372 nM; in [3], 0.15 ± 0.09 µM; in assay [4], 0.0282 nM. For the same compound, binding in assay [5] was put at a Kd of 0.00027 ± 8.4e-05 µM.

As usually defined, the Hill slope is a measure of the steepness of the concentration-response curve. Broadly, the EC50 is the concentration giving half of the maximal effect. Turning to KCl, in [6], the Hill slope is 2.5 and 2.9 and 3.5; the “KCl-evoked Ca2+ response (in words)” value is “evoked a large transient response; also recorded: elicits maximal Cav1 and Cav2.2 responses”; the “pEC50 for KCl-mediated stimulation” value is 1.69±0.12. Moreover, the EC50 in assay [6] (read-out: Ca2+ stimulation EC50) is 17300 ± 3410 µM.

ω-agatoxin: in assay [1], the “Effect on resistant KCl-evoked Ca2+ responses (in words)” value was “not blocked”.

`COC(=O)C1=C(C)NC(C)=C(C(=O)OC)C1c1ccccc1[N+](=O)[O-]` [nifedipine]: the “Block of L-type KCl responses (in words)” value in assay [7] is reported as “concentration-dependently blocked KCl responses”.

As to ω-agatoxin IVA, in assay [1], the “Effect on resistant KCl-evoked Ca2+ responses (in words)” value is reported as “did not significantly affect KCl-evoked Ca^2+ responses”.
